Measurements reported in PubChem BioAssay AID1918939 (Molecular Pharmacology Branch, DTP, NCI, 2023).

Test system: 653999-131-R-J2-PDC complex spheroid viability
Experiment: Anticancer human tumor 653999-131-R-J2-PDC patient-derived lung adenocarcinoma cell line growth inhibition
Settings: for IC50: curve of first compound; for viability, T/C: stronger effect = lower value
How it was run: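 Complex spheroids of tumor cells with HUVEC and human MSCs, exposed to iadademstat combined with other agents. Each agent tested in half-log steps from near clinical Cmax (else 10 microM top), DMSO ≤0.25%.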

[1] = second compound 0.1 µM, first compound 0.0316 µM
[2] = second compound 0.1 µM, first compound 0.1 µM
[3] = second compound 0.1 µM, first compound 0.316 µM
[4] = second compound 0.1 µM, first compound 1 µM
[5] = second compound 0.1 µM, first compound 3.16 µM
[6] = second compound 0.1 µM, first compound 10 µM
[7] = second compound 0.316 µM, first compound 0.0316 µM
[8] = second compound 0.316 µM, first compound 0.1 µM
[9] = second compound 0.316 µM, first compound 0.316 µM
[10] = second compound 0.316 µM, first compound 1 µM
[11] = second compound 0.316 µM, first compound 3.16 µM
[12] = second compound 0.316 µM, first compound 10 µM
[13] = second compound 1 µM, first compound 0.0316 µM
[14] = second compound 1 µM, first compound 0.1 µM
[15] = second compound 1 µM, first compound 0.316 µM
[16] = second compound 1 µM, first compound 1 µM
[17] = second compound 1 µM, first compound 3.16 µM
[18] = second compound 1 µM, first compound 10 µM
[19] = second compound 3.16 µM, first compound 0.0316 µM
[20] = second compound 3.16 µM, first compound 0.1 µM
[21] = second compound 3.16 µM, first compound 0.316 µM
[22] = second compound 3.16 µM, first compound 1 µM
[23] = second compound 3.16 µM, first compound 3.16 µM
[24] = second compound 3.16 µM, first compound 10 µM
[25] = second compound 10 µM, first compound 0.0316 µM
[26] = second compound 10 µM, first compound 0.1 µM
[27] = second compound 10 µM, first compound 0.316 µM
[28] = second compound 10 µM, first compound 1 µM
[29] = second compound 10 µM, first compound 3.16 µM
[30] = second compound 10 µM, first compound 10 µM
[31] = second compound 0.1 µM, first compound 0.00949 µM
[32] = second compound 0.1 µM, first compound 0.03 µM
[33] = second compound 0.1 µM, first compound 0.0949 µM
[34] = second compound 0.1 µM, first compound 0.3 µM
[35] = second compound 0.316 µM, first compound 0.00949 µM
[36] = second compound 0.316 µM, first compound 0.03 µM
[37] = second compound 0.316 µM, first compound 0.0949 µM
[38] = second compound 0.316 µM, first compound 0.3 µM
[39] = second compound 1 µM, first compound 0.00949 µM
[40] = second compound 1 µM, first compound 0.03 µM
[41] = second compound 1 µM, first compound 0.0949 µM
[42] = second compound 1 µM, first compound 0.3 µM
[43] = second compound 3.16 µM, first compound 0.00949 µM
[44] = second compound 3.16 µM, first compound 0.03 µM
[45] = second compound 3.16 µM, first compound 0.0949 µM
[46] = second compound 3.16 µM, first compound 0.3 µM
[47] = second compound 10 µM, first compound 0.00949 µM
[48] = second compound 10 µM, first compound 0.03 µM
[49] = second compound 10 µM, first compound 0.0949 µM
[50] = second compound 10 µM, first compound 0.3 µM
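Also: spheroids exposed to agents for seven days before readout.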

## CC1(C)CCC(CN2CCN(c3ccc(C(=O)NS(=O)(=O)c4ccc(NCC5CCOCC5)c([N+](=O)[O-])c4)c(Oc4cnc5[nH]ccc5c4)c3)CC2)=C(c2ccc(Cl)cc2)C1 + NC1CCC(NC2CC2c2ccccc2)CC1
Second compound 0.1 µM
  IC50: 9330 nM
Second compound 0.316 µM
  IC50: 8460 nM
Second compound 1 µM
  IC50: 8730 nM
Second compound 3.16 µM
  IC50: 7790 nM
Second compound 10 µM
  IC50: > 10000 nM
[1]
  viability, T/C: 93.5%
[2]
  viability, T/C: 82.4%
[3]
  viability, T/C: 86.9%
[4]
  viability, T/C: 100%
[5]
  viability, T/C: 94.8%
[6]
  viability, T/C: 47.3%
[7]
  viability, T/C: 76.8%
[8]
  viability, T/C: 89.7%
[9]
  viability, T/C: 97.7%
[10]
  viability, T/C: 92%
[11]
  viability, T/C: 92.2%
[12]
  viability, T/C: 43.2%
[13]
  viability, T/C: 77%
[14]
  viability, T/C: 83.4%
[15]
  viability, T/C: 97.2%
[16]
  viability, T/C: 96.5%
[17]
  viability, T/C: 73.7%
[18]
  viability, T/C: 46.8%
[19]
  viability, T/C: 97.9%
[20]
  viability, T/C: 88.1%
[21]
  viability, T/C: 102%
[22]
  viability, T/C: 94.2%
[23]
  viability, T/C: 74.5%
[24]
  viability, T/C: 43.2%
[25]
  viability, T/C: 89%
[26]
  viability, T/C: 84.2%
[27]
  viability, T/C: 87.4%
[28]
  viability, T/C: 87.3%
[29]
  viability, T/C: 78.1%
[30]
  viability, T/C: 50%

## CC1COCCN1c1cc(C2(S(C)(=N)=O)CC2)nc(-c2ccnc3[nH]ccc23)n1 (stereo not given) + NC1CCC(NC2CC2c2ccccc2)CC1
Second compound 0.1 µM
  IC50: 736 nM
Second compound 0.316 µM
  IC50: 832 nM
Second compound 1 µM
  IC50: 840 nM
Second compound 3.16 µM
  IC50: 674 nM
Second compound 10 µM
  IC50: 698 nM
[1]
  viability, T/C: 104%
[2]
  viability, T/C: 81.3%
[3]
  viability, T/C: 63.7%
[4]
  viability, T/C: 46.4%
[5]
  viability, T/C: 32.8%
[6]
  viability, T/C: 34.1%
[7]
  viability, T/C: 94.1%
[8]
  viability, T/C: 80.1%
[9]
  viability, T/C: 73.8%
[10]
  viability, T/C: 45.5%
[11]
  viability, T/C: 30%
[12]
  viability, T/C: 31%
[13]
  viability, T/C: 102%
[14]
  viability, T/C: 81%
[15]
  viability, T/C: 67.4%
[16]
  viability, T/C: 46.3%
[17]
  viability, T/C: 34.1%
[18]
  viability, T/C: 28.2%
[19]
  viability, T/C: 101%
[20]
  viability, T/C: 89.4%
[21]
  viability, T/C: 68.9%
[22]
  viability, T/C: 39.1%
[23]
  viability, T/C: 33.6%
[24]
  viability, T/C: 32.3%
[25]
  viability, T/C: 103%
[26]
  viability, T/C: 66.4%
[27]
  viability, T/C: 72.5%
[28]
  viability, T/C: 43.8%
[29]
  viability, T/C: 30%
[30]
  viability, T/C: 27.4%

## CCN(c1cc(-c2ccc(CN3CCOCC3)cc2)cc(C(=O)NCc2c(C)cc(C)[nH]c2=O)c1C)C1CCOCC1 + NC1CCC(NC2CC2c2ccccc2)CC1
Second compound 0.1 µM
  IC50: > 3000 nM
Second compound 0.316 µM
  IC50: > 3000 nM
Second compound 1 µM
  IC50: > 3000 nM
Second compound 3.16 µM
  IC50: > 3000 nM
Second compound 10 µM
  IC50: > 3000 nM
[31]
  viability, T/C: 97.1%
[32]
  viability, T/C: 93%
[33]
  viability, T/C: 98.2%
[34]
  viability, T/C: 94.9%
Second compound 0.1 µM, first compound 0.949 µM
  viability, T/C: 80.8%
Second compound 0.1 µM, first compound 3 µM
  viability, T/C: 74.9%
[35]
  viability, T/C: 80.6%
[36]
  viability, T/C: 88.9%
[37]
  viability, T/C: 91.8%
[38]
  viability, T/C: 80.9%
Second compound 0.316 µM, first compound 0.949 µM
  viability, T/C: 87.6%
Second compound 0.316 µM, first compound 3 µM
  viability, T/C: 72.2%
[39]
  viability, T/C: 77.6%
[40]
  viability, T/C: 101%
[41]
  viability, T/C: 92.2%
[42]
  viability, T/C: 76.3%
Second compound 1 µM, first compound 0.949 µM
  viability, T/C: 70.2%
Second compound 1 µM, first compound 3 µM
  viability, T/C: 78.8%
[43]
  viability, T/C: 96.1%
[44]
  viability, T/C: 94.5%
[45]
  viability, T/C: 108%
[46]
  viability, T/C: 84%
Second compound 3.16 µM, first compound 0.949 µM
  viability, T/C: 76.6%
Second compound 3.16 µM, first compound 3 µM
  viability, T/C: 83.9%
[47]
  viability, T/C: 87.7%
[48]
  viability, T/C: 84.9%
[49]
  viability, T/C: 85.5%
[50]
  viability, T/C: 76%
Second compound 10 µM, first compound 0.949 µM
  viability, T/C: 70%
Second compound 10 µM, first compound 3 µM
  viability, T/C: 82.4%

## Nc1ncn(C2CC(O)C(CO)S2)c(=O)n1 (stereo not given) + NC1CCC(NC2CC2c2ccccc2)CC1
Second compound 0.1 µM
  IC50: > 300 nM
Second compound 0.316 µM
  IC50: > 300 nM
Second compound 1 µM
  IC50: > 300 nM
Second compound 3.16 µM
  IC50: > 300 nM
Second compound 10 µM
  IC50: > 300 nM
Second compound 0.1 µM, first compound 0.000949 µM
  viability, T/C: 83.8%
Second compound 0.1 µM, first compound 0.003 µM
  viability, T/C: 109%
[31]
  viability, T/C: 90.8%
[32]
  viability, T/C: 74.8%
[33]
  viability, T/C: 70.4%
[34]
  viability, T/C: 50.6%
Second compound 0.316 µM, first compound 0.000949 µM
  viability, T/C: 86.6%
Second compound 0.316 µM, first compound 0.003 µM
  viability, T/C: 81.6%
[35]
  viability, T/C: 87.5%
[36]
  viability, T/C: 74.5%
[37]
  viability, T/C: 58%
[38]
  viability, T/C: 51.9%
Second compound 1 µM, first compound 0.000949 µM
  viability, T/C: 89.5%
Second compound 1 µM, first compound 0.003 µM
  viability, T/C: 94%
[39]
  viability, T/C: 86.3%
[40]
  viability, T/C: 78.7%
[41]
  viability, T/C: 67.8%
[42]
  viability, T/C: 55.5%
Second compound 3.16 µM, first compound 0.000949 µM
  viability, T/C: 99%
Second compound 3.16 µM, first compound 0.003 µM
  viability, T/C: 92%
[43]
  viability, T/C: 85.8%
[44]
  viability, T/C: 81.3%
[45]
  viability, T/C: 68.2%
[46]
  viability, T/C: 54.7%
Second compound 10 µM, first compound 0.000949 µM
  viability, T/C: 88.9%
Second compound 10 µM, first compound 0.003 µM
  viability, T/C: 112%
[47]
  viability, T/C: 88.8%
[48]
  viability, T/C: 84.7%
[49]
  viability, T/C: 63.7%
[50]
  viability, T/C: 58.6%
